Results: patent US20230090255A1, “MAGL INHIBITOR, PREPARATION METHOD THEREFOR AND USE THEREOF” (LUNAN PHARMACEUTICAL GROUP CORPORATION, priority 2019, published 2023)
One block for each compound: values may come before it.

Legend:
[1] = Tissue distribution test in mice; assay type: in vivo; set-up: content in the brain (tissue distribution): unit not given here; details: 16 mg/kg subcutaneous injection
[2] = molecular target: T1, recombinant human protein MAGL (Homo sapiens, UniProt Q99685); experiment: MAGL enzyme analysis (Cayman MAGL inhibitor screening kit); assay type: biochemical; details: 4-nitrophenylacetic acid substrate, absorbance 410 nm, read-out: MAGLXIC50
T1 construct: purchased Cayman
T1 sequence (Q99685 1-303): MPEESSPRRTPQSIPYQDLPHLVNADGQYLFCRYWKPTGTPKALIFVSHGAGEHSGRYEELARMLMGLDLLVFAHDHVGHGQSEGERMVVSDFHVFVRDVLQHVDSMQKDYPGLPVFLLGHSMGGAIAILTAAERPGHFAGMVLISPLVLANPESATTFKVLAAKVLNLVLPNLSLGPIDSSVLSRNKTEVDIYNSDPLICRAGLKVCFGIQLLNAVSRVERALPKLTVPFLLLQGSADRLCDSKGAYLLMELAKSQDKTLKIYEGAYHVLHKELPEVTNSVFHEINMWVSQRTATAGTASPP
Experimental: 150 µL 1Xassay buffer, 10 µL recombinant human protein MAGL and 10 µL different concentrations of MAGL inhibitors (six points within 1 nM to 1000 nM) were added to per well of a 96-well plate. JZL195 (a positive control inhibitor) served as a positive control well, after incubation for 5 min at room temperature, per well was added with 10 µL MAGL substrate, and […] were vibrated for 10 s and placed for 10 min at room temperature, then an absorbance was detected at 410 nm. […] Graphad Prism 5.0 was taken to calculate IC50 curves fitting each inhibitor.

[3] = tested on: reserpine-induced mice depression; experiment: Reserpine-induced mice depression; assay type: in vivo, ICR mouse; set-up: Awakening / Finger contact / Head touch / Fear / Autonomic activity / Eyelid closure / Upright: scale not given here; details: for Autonomic activity / Awakening / Eyelid closure / Fear / Finger contact / Head touch / Upright: 2 h after reserpine 4 mg/kg
Experimental: • Species: ICR mouse • Microbiological level: SPF • Quantity and sex of the animals purchased: male: 75; female: 75 • Quantity and sex of the animals used: male: 75; female: 75 • Body weight: 13-18 g when accepted
Group design: there were 50 pieces for each batch of animals and 3 batches in total; each batch of animals were randomly divided into 5 groups; low, middle and high-dose groups of the samples for test, blank control group and model group; a sample for test was tested per batch.
3.1 Animals were administrated via subcutaneous injection per day with doses of 4, 8 and 16 mg/kg for 6 d in total. 2 h later after the final administration, each animal was subcutaneously injected with 4 mg/kg reserpine except the blank control group; afterwards, indicators, such as, awakening, finger contact, fear, head touch, autonomic activity, upright and eyelid closure were determined 2 h later.
Data statistics and analysis were completed via a computer by SPSS 17.0 software and office 2016, and data statistics was inspected by Kruskal-Wallis. If the Kruskal-Wallis inspection result is significant ((P<0.05), multiple comparison inspection is further performed by a Mann-Whitney U nonparametric test method.

ulcerative colitis mice = experiment: Mice ulcerative colitis (DSS); assay type: in vivo, BALB/c mice; details: DSS mice, 100 mg/kg ig
Excerpt: Healthy male SPF-level BALB/c mice (8-week old and body mass: (20±2) g).
Modeling: the mice were randomly divided into […] at the end of the quarantine, 10 pieces for each group. The mice in the normal group drank normal water freely, and the rest groups of mice drank 1.0%-1.5% DSS solution freely for modeling, 7 d later after modeling, the mice in the modeling group drank normal water freely for 7 d, and 14 d served as a modeling period for four continuous periods, and the mice in the modeling group were administered at the same time.
End point of the experiment: experimental administration was performed for four periods, and dissection was performed on the 3rd and 4th day of the recovery period of the 4th period.
Test indicators: the mice were weighed twice a week after the beginning of the administration; diarrhea and hematochezia of the mice were observed, and times of hematochezia were recorded.
At the end of the experiment, the mice were dissected and weighed, and narcotized to take blood, then serum was preserved at -80° C. Spleen was taken and weighed to calculate the spleen index. The content of IL-1β in serum was detected via ELISA. Colorectum was cut and taken to measure the length of colorectum, then immobilized by formaldehyde and dyed by HE to detect the pathological change.

[4] = tested on: mice with inflammatory pain; experiment: Pain threshold of mice with inflammatory pain (complete Freund's adjuvant); assay type: in vivo, SD mice; details: complete Freund's adjuvant paw model, positive control 10 mg/kg ig once per day
Experimental: […] (180±20) g were injected with a complete Freund’s adjuvant (50 µL/piece) at the right rear plantar of mice, and mice in the control group were injected with the corresponding volume of 0.5% sodium carboxymethylcellulose to establish a paw edema inflammatory pain model. After modeling, the mice were administered for 7 d continuously, and administered intragastrically once per day. Pain thresholds (s) of the mice were respectively determined on the 1st, 3rd and 7th day before administration and after modeling at different periods of time.
Grouping and administration were the same as those of Example 40.

[5] = tested on: mice pain response induced by hot plate; experiment: Mice pain response induced by hot plate; assay type: in vivo, ICR mice; details: hot plate 55°C, positive control 10 mg/kg ig 7 d
Experimental: Female ICR mice (20±2) g were placed on an intelligent hot plate at 55±0.5° C., and latency (s) that the plantar of mice touched the hot plate until the occurrence of a hind paws licking response served as a pain threshold indicator; the mice (response latency <5 s or >30 s) or jumping mice were eliminated.
Grouping and administration were the same as those in Example 40.
The mice were continuously administered intragastrically for 7 consecutive days; the pain threshold of each group of mice was respectively determined once at 30, 60, 90 and 120 min after the final administration; the pain threshold greater than 60 s was calculated by 60 s.

[6] = tested on: mice writhing caused by acetic acid; experiment: Mice writhing caused by acetic acid; details: positive control 10 mg/kg ig
[7] = tested on: reserpine-induced mice migraine; experiment: Reserpine-induced mice migraine; assay type: in vivo, ICR mice
Experimental: The mice in the blank control group and model group were administered intragastrically via a solvent from the 5th day after modeling, and the rest groups of mice were respectively administered corresponding medicaments and doses for intragastric administration for 10 consecutive days; 1 h later after the final administration, the mice were weighed; blood was taken at inner canthus to detect blood coagulation time; whole blood was taken, and cerebrum was taken on an ice and preserved at -20° C. for the subsequent experiment.
Behavioral test: tail suspension activity was performed; the position 1 cm away from the tail of the mice was glued by an adhesive tape on the 9th day of the test, and the adhesive tape was penetrated by a steel needle, and hung in a dark box such that the mice were hung upside down; then the mice struggling times (total number of overturning from hanging) within 2 min were observed.
The mice were weighed 1 h later after the final administration; blood of inner canthus was taken via a capillary to detect the blood coagulation time.
Blood was taken to detect the content of 5-HT in serum via high-performance liquid chromatography. Cerebrum was taken on an ice and precooled and cleaned slightly with 0.5% sodium carboxymethylcellulose, and then sucked dry with a filter paper, and placed into a cryogenic tube, and preserved at -20° C. for further use, then the content of 5-HT in brain tissues was detected by high performance liquid chromatography.
5-HT test method: a sample was precipitated with 10% perchloric acid solution according to 1:1, and then centrifuged to take supernatant for test. Chromatographic conditions: the chromatographic column is a SHIMADZU VP-ODS C18 column (250*4.6 mm, 5 um), the mobile phase is a methanol-0.01 mol/L potassium acetate buffer solution (10:90, V/V, PH is adjusted to 4.00 with 0.2 mol/L citric acid) for gradient elution; the column temperature is 25° C., flow rate is 1.00 ml/min and test wavelength is 275 nm.

Structure (SMILES): O=C(Nc1ccccc1)C1CCN(C(=O)c2ccc(Oc3ccccc3)cc2)CC1 [MAGLZ-II-01]
- content in the brain (tissue distribution) ([1]; 1.0 h): 0
- content in the brain (tissue distribution) ([1]; 2.0 h): 0.6
- content in the brain (tissue distribution) ([1]; 5.0 h): 0.9
- IC50 [2]: 0.045 µM

- content in the brain (tissue distribution) ([1]; 1.0 h): 0
- content in the brain (tissue distribution) ([1]; 2.0 h): 1.2
- content in the brain (tissue distribution) ([1]; 5.0 h): 3.7
- IC50 [2]: 0.027 µM
Structure (SMILES): Cc1cc(C)cc(NC(=O)C2CCN(C(=O)c3ccc(Oc4ccccc4)cc3)CC2)c1 [MAGLZ-II-02]

- IC50 [2]: 0.749 µM
Structure (SMILES): COc1cccc(NC(=O)C2CCN(C(=O)c3ccc(Oc4ccccc4)cc3)CC2)c1 [MAGLZ-II-03]

- IC50 [2]: 0.126 µM
Structure (SMILES): CCCC(=O)Oc1cccc(C(=O)N2CCC(C(=O)Nc3cccc(Cl)c3)CC2)c1 [MAGLZ-II-11F]

Structure (SMILES): N[C@H](Cc1ccc(O)cc1)C(=O)Oc1cccc(C(=O)N2CCC(C(=O)Nc3cccc(Cl)c3)CC2)c1 [MAGLZ-II-11J]
- IC50 [2]: 1.6 µM

- IC50 [2]: 0.333 µM
Structure (SMILES): COc1cccc(C(=O)N2CCC(C(=O)Nc3cccc(Cl)c3)CC2)c1 [MAGLZ-II-14]

Structure (SMILES): O=C(Nc1cccc(Cl)c1)C1CCN(C(=O)c2ccc(Oc3ccccc3)cc2)CC1 [MAGLZ-II-16]
- effect on reserpine-induced depression (conclusion) ([3]; 4, 8 and 16 mg/kg sc 6 d): has a certain effect
- Autonomic activity ([3]; high dose 16 mg/kg sc 6 d): 0.6±0.6
- Awakening ([3]; high dose 16 mg/kg sc 6 d): 2±0
- Eyelid closure ([3]; high dose 16 mg/kg sc 6 d): 0±0
- Fear ([3]; high dose 16 mg/kg sc 6 d): 0±0
- Finger contact ([3]; high dose 16 mg/kg sc 6 d): 1.6±0.8
- Head touch ([3]; high dose 16 mg/kg sc 6 d): 0.8±0.98
- Upright ([3]; high dose 16 mg/kg sc 6 d): 0.4±1.2
- Autonomic activity ([3]; low dose 4 mg/kg sc 6 d): 0±0
- Awakening ([3]; low dose 4 mg/kg sc 6 d): 2±0
- Eyelid closure ([3]; low dose 4 mg/kg sc 6 d): 0±0
- Fear ([3]; low dose 4 mg/kg sc 6 d): 0±0
- Finger contact ([3]; low dose 4 mg/kg sc 6 d): 1.4±0.92
- Head touch ([3]; low dose 4 mg/kg sc 6 d): 0.4±0.8
- Upright ([3]; low dose 4 mg/kg sc 6 d): 0±0
- Autonomic activity ([3]; middle dose 8 mg/kg sc 6 d): 0.2±0.6
- Awakening ([3]; middle dose 8 mg/kg sc 6 d): 1.8±0.6
- Eyelid closure ([3]; middle dose 8 mg/kg sc 6 d): 0±0
- Fear ([3]; middle dose 8 mg/kg sc 6 d): 0±0
- Finger contact ([3]; middle dose 8 mg/kg sc 6 d): 1.2±0.98
- Head touch ([3]; middle dose 8 mg/kg sc 6 d): 0.8±0.98
- Upright ([3]; middle dose 8 mg/kg sc 6 d): 0±0
- content in the brain, ranking of the test substances [1]: highest
- content in the brain (tissue distribution) ([1]; 1.0 h): 0
- content in the brain (tissue distribution) ([1]; 2.0 h): 32.8
- content in the brain (tissue distribution) ([1]; 5.0 h): 16.9

Structure (SMILES): O=C(Nc1ccc(Cl)c(Cl)c1)C1CCN(C(=O)c2ccc3ccccc3c2)CC1 [MAGLZ-II-24]
- IC50 [2]: 0.275 µM

Structure (SMILES): O=C(Nc1cc(Cl)cc(Cl)c1)C1CCN(C(=O)c2ccc3ccccc3c2)CC1 [MAGLZ-II-25]
- IC50 [2]: 0.139 µM

- IC50 [2]: 0.252 µM
Structure (SMILES): O=C(Nc1cccc(Cl)c1)C1CCN(C(=O)c2ccc3cc(O)ccc3c2)CC1 [MAGLZ-II-29]

- IC50 [2]: 0.011 µM
Structure (SMILES): O=C(c1cccc(O)c1)N1CCC(c2nc3cc(Cl)ccc3o2)CC1 [MAGLZ-II-30]

Structure (SMILES): Nc1ccc(O)c(C(=O)O)c1 [Mesalazine, reference compound]
- Total times of hematochezia within the four periods (ulcerative colitis mice): 32.80±4.96
- Colon length (ulcerative colitis mice; four periods): 6.66±0.68 cm
- IL-1 content (ulcerative colitis mice; serum, ELISA): 48.33 ± 6.49 pg/mL

Structure (SMILES): O=C(O)Cc1ccccc1Nc1c(Cl)cccc1Cl [Positive medicament, diclofenac sodium, reference compound]
- Pain threshold ([4]; 0 d): 12.71 ± 2.55 s
- Pain threshold ([4]; 1 d): 6.38±0.91^∗ s
- Pain threshold ([4]; 3 d): 8.05±1.23^∗ s
- Pain threshold ([4]; 7 d): 9.00±0.911^∗ s
- Pain threshold ([5]; 30 min after final administration): 22.32 ± 6.76 s
- Pain threshold ([5]; 60 min): 24.34 ± 8.19 s
- Pain threshold ([5]; 90 min): 22.64 ± 6.48 s
- Pain threshold ([5]; 120 min): 22.52 ± 6.91 s
- Writhing times ([6]; 1 h before 0.7% acetic acid ip, within 20 min): 24.5±12.9
- Latent time ([6]; time to first writhing): 358.5 ± 172.7 s
- Inhibition ratio ([6]; writhing inhibition): 37.7%

Structure (SMILES): CN(C)CCc1c[nH]c2ccc(C[C@H]3COC(=O)N3)cc12 [Zolmitriptan, reference compound]
- Blood coagulation time ([7]; reserpine 0.2 mg/kg sc mice, 0.5 mg/kg ig 10 d, 1 h after final administration): 185.12±38.86 S
- brain tissue 5-HT ([7]; reserpine mice, 0.5 mg/kg ig 10 d): 1.93 ± 0.37 nmol/g
- Times of tail suspension (struggling times within 2 min) ([7]; reserpine mice, 0.5 mg/kg ig, 9th day): 18.13 ± 3.94
